From patent US20130338106A1, “COMPOUNDS INHIBITING LEUCINE-RICH REPEAT KINASE ENZYME ACTIVITY” (priority 2011, published 2013)

What was measured:
Type in all cases: biochemical
Details in all cases: tested at 10 uM, read-out: percent inhibition of the kinase activity
[1] = biological target: T1, ABL (Homo sapiens, UniProt P00519); assay: ProfilerPro Kinase Selectivity, ABL
T1 construct: purchased Caliper LifeSciences
Protocol: (§1) Kinome selectivity profiling was performed using two example compounds according to the manufacturer's instructions using Caliper LifeSciences' ProfilerPro Kinase Selectivity Assay Kits. Compounds prepared in Examples 1 and 7 were tested at 10 uM and data were recorded using the Caliper LabChip® EZ Reader™. Each compounds' percent inhibition of the kinase activity measured in this manner is reported in the following lists.

[2] = biological target: T2, ABL Q252H (Homo sapiens, UniProt P00519, Q252H); assay: ProfilerPro Kinase Selectivity, ABL Q252H
T2 construct: purchased Caliper LifeSciences
Protocol: as §1

[3] = biological target: T3, AKT3 (Homo sapiens, UniProt Q9Y243); assay: ProfilerPro Kinase Selectivity, AKT3
T3 construct: purchased Caliper LifeSciences
Protocol: as §1

[4] = biological target: T4, ALK (Homo sapiens, UniProt Q9UM73); assay: ProfilerPro Kinase Selectivity, ALK
T4 construct: purchased Caliper LifeSciences
Protocol: as §1

[5] = biological target: T5, BMX (Homo sapiens, UniProt P51813); assay: ProfilerPro Kinase Selectivity, BMX
T5 construct: purchased Caliper LifeSciences
Protocol: as §1

[6] = biological target: T6, BRSK1 (Homo sapiens, UniProt Q8TDC3); assay: ProfilerPro Kinase Selectivity, BRSK1
T6 construct: purchased Caliper LifeSciences
T6 sequence (Q8TDC3 whole entry, species assumed): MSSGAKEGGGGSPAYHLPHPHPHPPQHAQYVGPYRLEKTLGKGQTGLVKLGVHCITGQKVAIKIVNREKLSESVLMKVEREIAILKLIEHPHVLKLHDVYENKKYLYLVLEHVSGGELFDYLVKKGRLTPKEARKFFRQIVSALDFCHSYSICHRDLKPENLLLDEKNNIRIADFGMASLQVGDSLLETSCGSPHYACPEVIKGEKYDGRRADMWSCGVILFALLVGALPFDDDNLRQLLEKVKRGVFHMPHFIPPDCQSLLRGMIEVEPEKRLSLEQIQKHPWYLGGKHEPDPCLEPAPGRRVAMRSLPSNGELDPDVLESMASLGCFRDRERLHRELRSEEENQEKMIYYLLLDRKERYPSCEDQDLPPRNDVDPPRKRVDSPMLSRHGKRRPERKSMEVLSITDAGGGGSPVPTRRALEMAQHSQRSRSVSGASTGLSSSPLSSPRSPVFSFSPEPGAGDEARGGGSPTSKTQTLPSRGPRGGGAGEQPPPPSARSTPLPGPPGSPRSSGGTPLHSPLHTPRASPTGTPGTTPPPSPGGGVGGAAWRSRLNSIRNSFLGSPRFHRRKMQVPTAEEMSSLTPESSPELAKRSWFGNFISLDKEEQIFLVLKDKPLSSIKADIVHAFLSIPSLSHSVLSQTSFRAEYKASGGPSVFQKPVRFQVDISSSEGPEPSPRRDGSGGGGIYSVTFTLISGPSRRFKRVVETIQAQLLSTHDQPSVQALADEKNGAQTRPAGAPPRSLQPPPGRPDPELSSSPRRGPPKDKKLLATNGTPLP
Protocol: as §1

[7] = biological target: T7, CAMK1D (Homo sapiens, UniProt Q8IU85); assay: ProfilerPro Kinase Selectivity, CAMK1D
T7 construct: purchased Caliper LifeSciences
Protocol: as §1

[8] = biological target: T8, CK1D (Homo sapiens, UniProt P48730); assay: ProfilerPro Kinase Selectivity, CK1D
T8 construct: purchased Caliper LifeSciences
Protocol: as §1

[9] = biological target: T9, CK1E (Homo sapiens, UniProt P49674); assay: ProfilerPro Kinase Selectivity, CK1E
T9 construct: purchased Caliper LifeSciences
T9 sequence (P49674 whole entry): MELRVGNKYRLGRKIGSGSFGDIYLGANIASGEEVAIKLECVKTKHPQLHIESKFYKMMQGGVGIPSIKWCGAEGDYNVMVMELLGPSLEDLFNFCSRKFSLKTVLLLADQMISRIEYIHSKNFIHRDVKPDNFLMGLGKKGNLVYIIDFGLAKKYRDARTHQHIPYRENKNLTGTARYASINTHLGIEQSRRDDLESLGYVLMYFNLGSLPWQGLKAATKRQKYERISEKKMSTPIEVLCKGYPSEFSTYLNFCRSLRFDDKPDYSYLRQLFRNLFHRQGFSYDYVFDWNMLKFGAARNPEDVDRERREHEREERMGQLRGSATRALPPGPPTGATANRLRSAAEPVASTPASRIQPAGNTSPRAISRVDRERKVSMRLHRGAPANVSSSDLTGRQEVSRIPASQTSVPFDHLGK
Protocol: as §1

[10] = biological target: T10, CK1G1 (Homo sapiens, UniProt Q9HCP0); assay: ProfilerPro Kinase Selectivity, CK1G1
T10 construct: purchased Caliper LifeSciences
Protocol: as §1

[11] = biological target: T11, CLK2 (Homo sapiens, UniProt P49760); assay: ProfilerPro Kinase Selectivity, CLK2
T11 construct: purchased Caliper LifeSciences
Protocol: as §1

[12] = biological target: T12, DYRK1A (Homo sapiens, UniProt Q13627); assay: ProfilerPro Kinase Selectivity, DYRK1A
T12 construct: purchased Caliper LifeSciences
Protocol: as §1

[13] = biological target: T13, DYRK1B (Homo sapiens, UniProt Q9Y463); assay: ProfilerPro Kinase Selectivity, DYRK1B
T13 construct: purchased Caliper LifeSciences
Protocol: as §1

[14] = biological target: T14, EGFR T790M L858R (Homo sapiens, UniProt P00533, L858R/T790M); assay: ProfilerPro Kinase Selectivity, EGFR T790M L858R
T14 construct: purchased Caliper LifeSciences
Protocol: as §1

[15] = biological target: T15, FER (Homo sapiens, UniProt P16591); assay: ProfilerPro Kinase Selectivity, FER
T15 construct: purchased Caliper LifeSciences
Protocol: as §1

[16] = biological target: T16, FGFR3 (Homo sapiens, UniProt P22607); assay: ProfilerPro Kinase Selectivity, FGFR3
T16 construct: purchased Caliper LifeSciences
T16 sequence (P22607 23-806, species assumed): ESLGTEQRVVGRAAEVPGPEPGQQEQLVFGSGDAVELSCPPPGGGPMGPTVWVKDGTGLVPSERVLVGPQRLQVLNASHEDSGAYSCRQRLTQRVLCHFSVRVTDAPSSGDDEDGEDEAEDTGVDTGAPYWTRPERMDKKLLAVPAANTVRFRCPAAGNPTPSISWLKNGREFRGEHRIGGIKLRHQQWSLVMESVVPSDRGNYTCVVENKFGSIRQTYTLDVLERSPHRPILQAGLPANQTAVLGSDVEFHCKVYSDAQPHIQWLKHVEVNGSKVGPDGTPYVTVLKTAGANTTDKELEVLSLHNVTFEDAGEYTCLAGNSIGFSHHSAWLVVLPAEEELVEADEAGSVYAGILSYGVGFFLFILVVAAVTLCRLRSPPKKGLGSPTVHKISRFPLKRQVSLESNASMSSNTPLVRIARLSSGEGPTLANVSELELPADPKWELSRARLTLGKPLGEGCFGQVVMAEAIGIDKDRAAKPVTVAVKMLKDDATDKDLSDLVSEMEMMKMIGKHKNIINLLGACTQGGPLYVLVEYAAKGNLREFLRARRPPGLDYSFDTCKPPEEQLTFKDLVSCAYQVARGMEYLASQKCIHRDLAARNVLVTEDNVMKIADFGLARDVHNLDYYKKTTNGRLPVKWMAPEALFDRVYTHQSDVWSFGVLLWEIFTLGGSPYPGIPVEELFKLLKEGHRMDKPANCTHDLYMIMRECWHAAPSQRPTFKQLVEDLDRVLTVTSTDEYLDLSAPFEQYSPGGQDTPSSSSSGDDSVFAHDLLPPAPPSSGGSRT
Protocol: as §1

[17] = biological target: T17, FLT3 (Homo sapiens, UniProt P36888); assay: ProfilerPro Kinase Selectivity, FLT3
T17 construct: purchased Caliper LifeSciences
Protocol: as §1

[18] = biological target: T18, GCK (Homo sapiens, UniProt Q12851); assay: ProfilerPro Kinase Selectivity, GCK
T18 construct: purchased Caliper LifeSciences
Protocol: as §1

[19] = biological target: T19, HCK (Homo sapiens, UniProt P08631); assay: ProfilerPro Kinase Selectivity, HCK
T19 construct: purchased Caliper LifeSciences
Protocol: as §1

[20] = biological target: T20, HIPK1 (Homo sapiens, UniProt Q86Z02); assay: ProfilerPro Kinase Selectivity, HIPK1
T20 construct: purchased Caliper LifeSciences
Protocol: as §1

[21] = biological target: T21, HIPK2 (Homo sapiens, UniProt Q9H2X6); assay: ProfilerPro Kinase Selectivity, HIPK2
T21 construct: purchased Caliper LifeSciences
Protocol: as §1

[22] = biological target: T22, IRAK4 (Homo sapiens, UniProt Q9NWZ3); assay: ProfilerPro Kinase Selectivity, IRAK4
T22 construct: purchased Caliper LifeSciences
T22 sequence (Q9NWZ3 whole entry, species assumed): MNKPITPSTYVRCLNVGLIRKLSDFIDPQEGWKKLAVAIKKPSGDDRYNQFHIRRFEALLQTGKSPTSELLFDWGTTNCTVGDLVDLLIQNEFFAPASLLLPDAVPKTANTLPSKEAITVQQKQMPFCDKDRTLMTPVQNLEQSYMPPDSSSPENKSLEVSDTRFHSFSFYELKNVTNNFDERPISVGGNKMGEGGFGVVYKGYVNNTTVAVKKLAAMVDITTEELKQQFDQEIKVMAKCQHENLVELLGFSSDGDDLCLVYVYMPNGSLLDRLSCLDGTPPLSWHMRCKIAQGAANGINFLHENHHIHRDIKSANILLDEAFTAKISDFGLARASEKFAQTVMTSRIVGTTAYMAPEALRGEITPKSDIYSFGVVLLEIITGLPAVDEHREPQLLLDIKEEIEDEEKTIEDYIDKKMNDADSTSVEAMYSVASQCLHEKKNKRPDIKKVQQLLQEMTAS
Protocol: as §1

[23] = biological target: T23, KIT (Homo sapiens, UniProt P10721); assay: ProfilerPro Kinase Selectivity, KIT
T23 construct: purchased Caliper LifeSciences
Protocol: as §1

[24] = biological target: T24, LOK (Homo sapiens, UniProt O94804); assay: ProfilerPro Kinase Selectivity, LOK
T24 construct: purchased Caliper LifeSciences
T24 sequence (O94804 whole entry, species assumed): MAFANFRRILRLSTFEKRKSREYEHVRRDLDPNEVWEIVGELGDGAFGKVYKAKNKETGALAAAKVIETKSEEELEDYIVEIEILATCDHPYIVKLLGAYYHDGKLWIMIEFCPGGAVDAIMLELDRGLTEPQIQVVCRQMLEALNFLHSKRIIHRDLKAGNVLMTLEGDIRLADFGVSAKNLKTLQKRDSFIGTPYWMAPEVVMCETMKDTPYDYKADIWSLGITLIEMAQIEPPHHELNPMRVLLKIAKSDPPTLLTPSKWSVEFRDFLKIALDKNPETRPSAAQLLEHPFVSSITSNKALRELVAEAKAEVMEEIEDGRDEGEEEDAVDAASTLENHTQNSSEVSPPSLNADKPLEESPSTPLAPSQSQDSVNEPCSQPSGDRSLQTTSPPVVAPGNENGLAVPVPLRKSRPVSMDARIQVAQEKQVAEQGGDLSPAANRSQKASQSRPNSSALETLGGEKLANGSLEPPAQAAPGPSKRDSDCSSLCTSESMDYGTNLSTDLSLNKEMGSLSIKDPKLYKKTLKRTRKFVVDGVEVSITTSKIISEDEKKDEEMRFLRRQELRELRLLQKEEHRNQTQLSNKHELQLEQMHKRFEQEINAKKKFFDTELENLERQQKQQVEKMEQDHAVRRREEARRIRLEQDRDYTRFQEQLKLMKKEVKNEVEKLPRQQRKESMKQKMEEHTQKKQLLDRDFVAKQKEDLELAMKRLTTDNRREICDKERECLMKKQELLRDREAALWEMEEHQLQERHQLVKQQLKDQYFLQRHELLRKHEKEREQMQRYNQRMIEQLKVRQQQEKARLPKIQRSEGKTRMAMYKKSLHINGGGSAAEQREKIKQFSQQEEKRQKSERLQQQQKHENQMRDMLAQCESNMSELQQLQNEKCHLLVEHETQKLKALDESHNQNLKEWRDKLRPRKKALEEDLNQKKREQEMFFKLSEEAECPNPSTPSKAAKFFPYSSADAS
Protocol: as §1

[25] = biological target: T25, MARK2 (Homo sapiens, UniProt Q7KZI7); assay: ProfilerPro Kinase Selectivity, MARK2
T25 construct: purchased Caliper LifeSciences
Protocol: as §1

[26] = biological target: T26, MSK2 (Homo sapiens, UniProt O75676); assay: ProfilerPro Kinase Selectivity, MSK2
T26 construct: purchased Caliper LifeSciences
Protocol: as §1

[27] = biological target: T27, NEK2 (Homo sapiens, UniProt P51955); assay: ProfilerPro Kinase Selectivity, NEK2
T27 construct: purchased Caliper LifeSciences
Protocol: as §1

[28] = biological target: T28, P38A/SAPK2A T106M (Homo sapiens, UniProt Q16539, T106M); assay: ProfilerPro Kinase Selectivity, P38A/SAPK2A T106M
T28 construct: purchased Caliper LifeSciences
Protocol: as §1

[29] = biological target: T29, PAK2 (Homo sapiens, UniProt Q13177); assay: ProfilerPro Kinase Selectivity, PAK2
T29 construct: purchased Caliper LifeSciences
Protocol: as §1

[30] = biological target: T30, PAK4 (Homo sapiens, UniProt O96013); assay: ProfilerPro Kinase Selectivity, PAK4
T30 construct: purchased Caliper LifeSciences
Protocol: as §1

[31] = biological target: T31, PDGFRA (Homo sapiens, UniProt P16234); assay: ProfilerPro Kinase Selectivity, PDGFRA
T31 construct: purchased Caliper LifeSciences
T31 sequence (P16234 24-1089, species assumed): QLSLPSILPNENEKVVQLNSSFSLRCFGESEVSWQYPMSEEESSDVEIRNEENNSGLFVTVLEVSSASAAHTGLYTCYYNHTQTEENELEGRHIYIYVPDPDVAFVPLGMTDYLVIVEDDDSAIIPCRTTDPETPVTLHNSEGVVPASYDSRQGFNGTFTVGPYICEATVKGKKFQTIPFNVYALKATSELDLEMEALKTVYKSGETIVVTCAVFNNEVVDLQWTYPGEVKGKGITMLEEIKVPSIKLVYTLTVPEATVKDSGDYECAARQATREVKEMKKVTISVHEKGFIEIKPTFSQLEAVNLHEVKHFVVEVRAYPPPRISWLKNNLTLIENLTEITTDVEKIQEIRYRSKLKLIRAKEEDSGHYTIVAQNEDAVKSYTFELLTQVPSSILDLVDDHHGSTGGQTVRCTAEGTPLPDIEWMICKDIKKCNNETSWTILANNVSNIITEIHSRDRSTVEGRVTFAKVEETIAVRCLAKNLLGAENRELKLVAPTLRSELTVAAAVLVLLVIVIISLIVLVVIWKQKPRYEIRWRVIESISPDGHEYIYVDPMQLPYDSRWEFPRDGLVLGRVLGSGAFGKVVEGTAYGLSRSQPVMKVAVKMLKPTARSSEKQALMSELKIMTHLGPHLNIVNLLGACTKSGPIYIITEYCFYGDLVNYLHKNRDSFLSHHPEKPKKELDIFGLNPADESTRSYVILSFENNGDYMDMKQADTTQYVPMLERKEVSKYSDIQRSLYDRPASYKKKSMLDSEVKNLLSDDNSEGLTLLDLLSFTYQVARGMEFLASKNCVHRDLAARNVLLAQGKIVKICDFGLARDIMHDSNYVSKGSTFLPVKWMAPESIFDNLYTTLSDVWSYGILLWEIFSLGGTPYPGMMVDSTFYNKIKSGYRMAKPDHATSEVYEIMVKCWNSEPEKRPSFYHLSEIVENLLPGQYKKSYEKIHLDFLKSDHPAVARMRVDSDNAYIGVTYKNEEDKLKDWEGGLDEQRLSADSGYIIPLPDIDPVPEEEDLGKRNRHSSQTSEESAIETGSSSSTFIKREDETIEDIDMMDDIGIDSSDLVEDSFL
Protocol: as §1

[32] = biological target: T32, PHKG1 (Homo sapiens, UniProt Q16816); assay: ProfilerPro Kinase Selectivity, PHKG1
T32 construct: purchased Caliper LifeSciences
Protocol: as §1

[33] = biological target: T33, PKG1A (Homo sapiens, UniProt Q13976); assay: ProfilerPro Kinase Selectivity, PKG1A
T33 construct: purchased Caliper LifeSciences
Protocol: as §1

[34] = biological target: T34, PRKCB1 (Homo sapiens, UniProt P05771); assay: ProfilerPro Kinase Selectivity, PRKCB1
T34 construct: purchased Caliper LifeSciences
Protocol: as §1

[35] = biological target: T35, PRKCH (Homo sapiens, UniProt P24723); assay: ProfilerPro Kinase Selectivity, PRKCH
T35 construct: purchased Caliper LifeSciences
Protocol: as §1

[36] = biological target: T36, RSK2 (Homo sapiens, UniProt P51812); assay: ProfilerPro Kinase Selectivity, RSK2
T36 construct: purchased Caliper LifeSciences
Protocol: as §1

[37] = biological target: T37, SGK2 (Homo sapiens, UniProt Q9HBY8); assay: ProfilerPro Kinase Selectivity, SGK2
T37 construct: purchased Caliper LifeSciences
T37 sequence (Q9HBY8 whole entry, species assumed): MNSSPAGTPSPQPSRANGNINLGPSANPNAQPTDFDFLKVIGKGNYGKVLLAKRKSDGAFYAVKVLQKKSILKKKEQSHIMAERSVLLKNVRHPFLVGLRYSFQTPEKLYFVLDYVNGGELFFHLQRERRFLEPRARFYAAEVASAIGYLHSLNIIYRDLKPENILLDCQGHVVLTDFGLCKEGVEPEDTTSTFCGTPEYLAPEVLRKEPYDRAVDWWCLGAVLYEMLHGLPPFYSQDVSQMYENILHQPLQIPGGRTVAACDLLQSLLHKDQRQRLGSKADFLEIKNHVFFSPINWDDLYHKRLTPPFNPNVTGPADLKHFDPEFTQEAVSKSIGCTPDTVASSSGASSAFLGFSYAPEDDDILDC
Protocol: as §1

[38] = biological target: T38, SGK3 (Homo sapiens, UniProt Q96BR1); assay: ProfilerPro Kinase Selectivity, SGK3
T38 construct: purchased Caliper LifeSciences
Protocol: as §1

[39] = biological target: T39, TSSK2 (Homo sapiens, UniProt Q96PF2); assay: ProfilerPro Kinase Selectivity, TSSK2
T39 construct: purchased Caliper LifeSciences
Protocol: as §1

| Structure (SMILES) | inhibition at 10 µM [1] [%] | inhibition at 10 µM [2] [%] | inhibition at 10 µM [3] [%] | inhibition at 10 µM [4] [%] | inhibition at 10 µM [5] [%] | inhibition at 10 µM [6] [%] | inhibition at 10 µM [7] [%] | inhibition at 10 µM [8] [%] | inhibition at 10 µM [9] [%] | inhibition at 10 µM [10] [%] | inhibition at 10 µM [11] [%] | inhibition at 10 µM [12] [%] | inhibition at 10 µM [13] [%] | inhibition at 10 µM [14] [%] | inhibition at 10 µM [15] [%] | inhibition at 10 µM [16] [%] | inhibition at 10 µM [17] [%] | inhibition at 10 µM [18] [%] | inhibition at 10 µM [19] [%] | inhibition at 10 µM [20] [%] | further results |
| --- | --- | --- | --- | --- | --- | --- | --- | --- | --- | --- | --- | --- | --- | --- | --- | --- | --- | --- | --- | --- | --- |
| CSc1sc(-c2cc[nH]n2)c2c1C(=O)CCC2 [Example 1, 3-(Methylsulfanyl)-1-(1H-pyrazol-3-yl)-6,7-dihydro-2-benzothiophen-4(5H)-one] | 12.7 | 16.9 | -2.2 | 23.8 | -10.9 | -0.2 | -3.1 | 44.6 | 10.9 | 6.6 | 31.3 | 44 | 40.2 | 3.9 | 11.6 | 9 | 11.4 | 6.3 | 12.5 | 15.9 | inhibition at 10 µM [21]: 25.2%; inhibition at 10 µM [22]: 31.1%; inhibition at 10 µM [23]: 19.2%; inhibition at 10 µM [24]: 7.5%; inhibition at 10 µM [25]: 0.3%; inhibition at 10 µM [26]: 4.2%; inhibition at 10 µM [27]: -0.8%; inhibition at 10 µM [28]: 1.2%; inhibition at 10 µM [29]: 4.6%; inhibition at 10 µM [30]: 6.1%; inhibition at 10 µM [31]: 15.7%; inhibition at 10 µM [32]: 6.3%; inhibition at 10 µM [33]: -5.9%; inhibition at 10 µM [34]: -5.1%; inhibition at 10 µM [35]: 1.1%; inhibition at 10 µM [36]: 5.5%; inhibition at 10 µM [37]: 10.6%; inhibition at 10 µM [38]: 4.6%; inhibition at 10 µM [39]: 20.1% |
| CC1(C)CC(=O)c2c(SC3CCCC3)sc(-c3cc[nH]n3)c2C1 [Example 7, 3-(Cyclopentylsulfanyl)-6,6-dimethyl-1-(1H-pyrazol-3-yl)-6,7-dihydro-2-benzothiophen-4(5H)-one] | 1.9 | 3.9 | -2.7 | 44.7 | -30.7 | 3.8 | 4 | 12.9 | 5.1 | 10.9 | 1.3 | 0 | 4.7 | 13.7 | -0.2 | -2.6 | 4.6 | 11.8 | -1.1 | -1 | inhibition at 10 µM [21]: 5%; inhibition at 10 µM [22]: 3.7%; inhibition at 10 µM [23]: -7.3%; inhibition at 10 µM [24]: -32.6%; inhibition at 10 µM [25]: 9.2%; inhibition at 10 µM [26]: 10.4%; inhibition at 10 µM [27]: 0.9%; inhibition at 10 µM [28]: 3.7%; inhibition at 10 µM [29]: 2.4%; inhibition at 10 µM [30]: -8.9%; inhibition at 10 µM [31]: -0.7%; inhibition at 10 µM [32]: 4.6%; inhibition at 10 µM [33]: 1.9%; inhibition at 10 µM [34]: -3.9%; inhibition at 10 µM [35]: 0.8%; inhibition at 10 µM [36]: 3.5%; inhibition at 10 µM [37]: 5.4%; inhibition at 10 µM [38]: 4.6%; inhibition at 10 µM [39]: -2.3% |
